Results published in US20250277247A1, “NUCLEIC ACID AMPLIFICATIONS” (priority 2012, published 2025).

Experiments:
[1] = NEAR reaction mixture, buffer pH 8 at room temperature, temperature increased to 56° C.; cited from earlier work
[2] = cited from earlier work
[3] = test system: purified influenza A viral RNA; assay type: biochemical; conditions: 14 mM EGTA, 15 mM MgSO4, 100 mM Tris-Cl; about 20 minutes at room temperature, then 56° C., monitored 10 minutes; 0 or 100 copies
[4] = test system: genomic DNA from Mycobacterium bovis BCG; assay type: biochemical, Mycobacterium bovis BCG (ATCC strain 190115); conditions: 15 mM EGTA, 15 mM MgSO4; 15 minutes at room temperature, then 56° C., monitored 40 minutes; 20 or 200 copies vs no template

NC(CO)(CO)CO [Tris, tris(hydroxymethyl)aminomethane]
pH of the temperature sensitive buffer [1]: < 7.4

O=S(=O)(O)CCN1CCN(CCS(=O)(=O)O)CC1 [PIPES, piperazine-N,N′-bis(2-ethanesulfonic acid)]
pKa (20° C.) ([2]; 20° C.): 6.80 | pKa (25° C.) ([2]; 25° C.): 6.76 | pKa (37° C.) ([2]; 37° C.): 6.66

O=C(O)CN(CCOCCOCCN(CC(=O)O)CC(=O)O)CC(=O)O [EGTA, Ethylene bis(oxyethylenenitrilo) tetraacetic acid]
Amplification (real-time fluorescence) [3]: Amplification was observed only in the reactions that included both EGTA and 100 copies of viral RNA | Amplification (real-time fluorescence) [4]: significant amplification was observed
